Consider one compound from patent publication US10273290B2, “Hydrocarbon double-stapled stabilized HIV-1 GP41 heptad repeat domain peptides” (DANA-FARBER CANCER INSTITUTE, INC., priority 2009, dated 2019).

Bridge positions count the residues as written; N and C are the ends. Square brackets hold non-standard residues; d marks the D form. Peptide text beside a SMILES is read from it. S5 = C=CCCC[C@](C)(N)C(=O)O; Nle = CCCC[C@H](N)C(=O)O

Data set [1] in a line: Circular dichroism, α-helical content. Conditions: comparative CD spectra, 20-mer residues 626-645. Format: physicochemical. A digest of the protocol:
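Far-UV CD spectra recorded at 20° C, 190-260 nm, 0.1 cm path, 10 accumulations. Percent α-helicity from mean residue ellipticity at 222 nm: 100×[θ]222/max[θ]222, with max[θ]222=−40,000×[1−(2.5/number of residues)]. Secondary-structure fractions also estimated by CDNN curve-fitting.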

Another data set deals with HIV syncytia formation. Put plainly: HIV syncytial formation assay. Format: cell-based, HIV-1. Here is the method: Functional assays can be used to evaluate the activity of the antibodies produced. In culture, multinucleated giant cells or “syncytia” form as a result of direct cell-cell fusion between HIV-1-infected and uninfected CD4-positive cells. In the syncytia formation assay, an indicator cell line expressing the CD4 receptor, and a fusogenic cell line that lacks the CD4 receptor but contains HIV-1 proteins on the surface, fuse to generate 70-100 multinucleated giant cells in culture within 48 h. Syncytia are then counted using an inverted microscope. The ability of structured gp41 peptides or antibodies targeted thereto to inhibit syncytia formation in a dose-responsive fashion is used as a functional measure of fusion inhibition, for which IC50s can be determined and compared with peptides T20 and T649, or established neutralization antibodies (Brenner, T. J., et al. The Lancet, 1991. 337(8748): p. 1001-1005; Madani, N., et al., Journal of Virology, 2007. 81(2): p. 532-538).
The truncated Stabilized Alpha Helix (SAH)-gp41 compound, SAH-gp41(626-645)(A), was successfully synthesized in high yield.

The test system of a further data set is HIV-1 HXBc2. Put plainly: HIV infectivity assay, HXBc2 strain. In kind it is cell-based. Conditions: compared to T20. The text has this:
Also the direct inhibitory activity of modified polypeptides and the antibodies targeted thereto can be quantified based upon their capacity to directly block HIV infection of CD4-positive and CCR5-expressing canine thymus cells. Recombinant HIV-1 viruses (eg. HXBc2, YU2, and additional strains available through the NIH AIDS Research and Reference Reagent Program) expressing firefly luciferase and containing the indicated envelope glycoproteins can be used to infect Cf2Th-CD4-CCR5/CXCR4 cells in the presence of serially diluted modified HIV-1 gp41 polypeptides or antibodies targeted thereto After 48 hours, the cells are lysed and luciferase activity is quantified (Si, Z. H., M. Cayabyab, and J. Sodroski, Journal of Virology, 2001. 75(9): p. 4208-4218 Si, Z. H., et al., PNAS, 2004. 101(14): p. 5036-5041). The identical experiment is performed with the amphotropic murine leukemia virus (AMLV), to monitor for any nonspecific effects of the modified polypeptides or antibodies. Similar control assays may be performed with unmodified or non-HIV polypeptides of the invention or control antibodies and are known in the art. […]

In turn, `CCCC[C@H](NC(C)=O)C(=O)N[C@H](C(=O)N[C@@H](Cc1c[nH]c2ccccc12)C(=O)N[C@@]1(C)CCCC=CCCC[C@@](C)(C(=O)N[C@@H](CCC(=O)O)C(=O)N[C@H](C(=O)N[C@@H](CC(N)=O)C(=O)N[C@@H](CC(N)=O)C(=O)N[C@@H](Cc2ccc(O)cc2)C(=O)N[C@H](C(=O)N[C@@H](CO)C(=O)N[C@@H](CC(C)C)C(=O)N[C@H](C(=O)N[C@@H](Cc2c[nH]cn2)C(=O)N[C@@H](CO)C(=O)N[C@@H](CC(C)C)C(N)=O)[C@@H](C)CC)[C@@H](C)O)[C@@H](C)CC)NC(=O)[C@H](CC(=O)O)NC(=O)[C@H](Cc2c[nH]c3ccccc23)NC(=O)[C@H](CCC(=O)O)NC1=O)[C@@H](C)O` [SAH-gp41(626-645)(A)] (Ac-[Nle]TW[S5]EWD[S5]EINNYTSLIHSL-NH2; staple 4-8; N-terminus assumed) returned a α-helical content in data set [1] of 48%. The “inhibitory activity in syncytial formation assay, in words” value in the data set on HIV syncytia formation was “markedly enhanced inhibitory activity”. For the same compound, the “anti-HXBc2 activity, in words” value in the data set on HIV-1 HXBc2 was “significant anti-HXBc2 activity”.
